Source: PubChem BioAssay (NCI)
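Test compounds were applied to cells in 96-well plates for 48 hours at 5 doses. GI50: concentration for 50% inhibition of growth. TGI marks complete inhibition of growth.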

What was measured:
Experiment in all cases: growth of human tumour cells (NCI), 48 h; in the data active means GI50 below about 0.43 µM; inactive means the rest
[1] = tested on: HCT-116 colon
[2] = tested on: UO-31 renal
[3] = tested on: HOP-92 NSCLC
[4] = tested on: NCI-H460 lung
[5] = tested on: SNB-75 CNS
[6] = tested on: A498 renal
[7] = tested on: OVCAR-4 ovarian
[8] = tested on: A549 NSCLC
[9] = tested on: COLO 205 colon
[10] = tested on: HS 578T breast
[11] = tested on: 786-0 renal
[12] = tested on: OVCAR-3 ovarian
[13] = tested on: NCI-H23 lung
[14] = tested on: RPMI-8226 leukemia
[15] = tested on: MALME-3M melanoma
[16] = tested on: SR leukemia
[17] = tested on: UACC-62 melanoma
[18] = tested on: DU-145 prostate
[19] = tested on: NCI-H226 lung
[20] = tested on: UACC-257 melanoma
[21] = tested on: SK-OV-3 ovarian
[22] = tested on: SF-295 CNS
[23] = tested on: HT29 colon
[24] = tested on: SNB-19 CNS
[25] = tested on: SK-MEL-28 melanoma
[26] = tested on: CCRF-CEM leukemia
[27] = tested on: OVCAR-5 ovarian
[28] = tested on: OVCAR-8 ovarian
[29] = tested on: MDA-MB-468 breast
[30] = tested on: NCI-H522 lung
[31] = tested on: K-562 leukemia
[32] = tested on: SW-620 colon
[33] = tested on: PC-3 prostate
[34] = tested on: LOX IMVI melanoma
[35] = tested on: EKVX NSCLC
[36] = tested on: SK-MEL-5 melanoma
[37] = tested on: M14 melanoma
[38] = tested on: BT-549 breast
[39] = tested on: MOLT-4 leukemia
[40] = tested on: MDA-MB-231 breast
[41] = tested on: ACHN renal
[42] = tested on: T-47D breast
[43] = tested on: SK-MEL-2 melanoma
[44] = tested on: RXF 393 renal
[45] = tested on: KM12 colon
[46] = tested on: HCC-2998 colon
[47] = tested on: HL-60(TB) leukemia
[48] = tested on: SN12C renal
[49] = tested on: MCF7 breast
[50] = tested on: SF-268 CNS
[51] = tested on: U251 CNS
[52] = tested on: TK-10 renal
[53] = tested on: MDA-MB-435
[54] = tested on: HCT-15 colon
[55] = tested on: CAKI-1 renal
[56] = tested on: NCI/ADR-RES ovarian
[57] = tested on: SF-539 CNS
[58] = tested on: IGROV1 ovarian
[59] = tested on: HOP-62 NSCLC

O=C(COc1ccc(NC(=O)Nc2ccc(Cl)cc2)cc1)N=Nc1c(O)[nH]c2ccc([N+](=O)[O-])cc12
26.8 µM: TGI [44]
> 100 µM: TGI [2] | TGI [8] | TGI [9] | TGI [14] | TGI [16] | TGI [18] | TGI [20] | TGI [23] | TGI [27] | TGI [28] | TGI [31] | TGI [32] | TGI [33] | TGI [35] | TGI [36] | TGI [37] | TGI [39] | TGI [41] | TGI [46] | TGI [47] | TGI [54] | TGI [55] | TGI [56]
29.8 µM: TGI [38]
13.6 µM: TGI [1]
8.18 µM: TGI [26]
18.7 µM: TGI [50]
26.6 µM: TGI [17]
20.3 µM: TGI [43]
15.8 µM: TGI [10]
8.74 µM: TGI [15]
8.03 µM: TGI [30]
23.6 µM: TGI [24]
24.2 µM: TGI [5] | TGI [19]
12.4 µM: TGI [3]
33.9 µM: TGI [4]
7.97 µM: TGI [25]
11.5 µM: TGI [34]
24.8 µM: TGI [7]
9.44 µM: TGI [40]
inactive: GI50 [1] 3.65 µM | GI50 [2] > 100 µM | GI50 [3] 3.01 µM | GI50 [4] 3.07 µM | GI50 [5] 4.82 µM | GI50 [6] 21.1 µM | GI50 [7] 3.95 µM | GI50 [8] > 100 µM | GI50 [9] 5.21 µM | GI50 [10] 2.96 µM | GI50 [11] 15.6 µM | GI50 [12] 2.25 µM | GI50 [13] 5.79 µM | GI50 [14] 7.3 µM | GI50 [15] 2.6 µM | GI50 [16] 18 µM | GI50 [17] 6.99 µM | GI50 [18] 10.3 µM | GI50 [19] 4.12 µM | GI50 [20] 20.1 µM | GI50 [21] 21.6 µM | GI50 [22] 16.5 µM | GI50 [23] 6.81 µM | GI50 [24] 10.1 µM | GI50 [25] 2.49 µM | GI50 [26] 2.56 µM | GI50 [27] 24 µM | GI50 [28] 12.7 µM | GI50 [29] 1.98 µM | GI50 [30] 2.4 µM | GI50 [31] 8.47 µM | GI50 [32] 3.34 µM | GI50 [33] 6.59 µM | GI50 [34] 3.21 µM | GI50 [35] 22.3 µM | GI50 [36] 12.4 µM | GI50 [37] 5.83 µM | GI50 [38] 14.2 µM | GI50 [39] 5.25 µM | GI50 [40] 2.84 µM | GI50 [41] 26.8 µM | GI50 [42] 4 µM | GI50 [43] 7.09 µM | GI50 [44] 5.69 µM | GI50 [45] 1.95 µM | GI50 [46] 6.18 µM | GI50 [47] > 100 µM | GI50 [48] 4.74 µM | GI50 [49] 2.06 µM | GI50 [50] 4.81 µM | GI50 [51] 6.42 µM | GI50 [52] 23.7 µM | GI50 [53] 3.7 µM | GI50 [54] > 100 µM | GI50 [55] 69.7 µM | GI50 [56] > 100 µM | GI50 [57] 3.36 µM | GI50 [58] 13.6 µM | GI50 [59] 14.3 µM
6.58 µM: TGI [12]
30.7 µM: TGI [58]
59.7 µM: TGI [52]
18.3 µM: TGI [13]
11 µM: TGI [45]
55.8 µM: TGI [21]
20.5 µM: TGI [53]
30.6 µM: TGI [59]
23.9 µM: TGI [48]
4.82 µM: TGI [29]
6.36 µM: TGI [49]
34.6 µM: TGI [11]
43.2 µM: TGI [6]
30.2 µM: TGI [42]
34 µM: TGI [22]
15.3 µM: TGI [57]
19.6 µM: TGI [51]

CCCn1c(=O)c2[nH]c(-c3ccc(OCc4nc5ccc(F)cc5[nH]4)cc3)nc2n(CCC)c1=O
62.4 µM: TGI [55]
27.7 µM: TGI [57]
11.3 µM: TGI [44]
65.6 µM: TGI [22]
20.2 µM: TGI [5]
40.9 µM: TGI [29]
38.7 µM: TGI [15]
50.4 µM: TGI [42]
29 µM: TGI [2]
> 100 µM: TGI [1] | TGI [7] | TGI [8] | TGI [9] | TGI [10] | TGI [11] | TGI [13] | TGI [14] | TGI [16] | TGI [17] | TGI [18] | TGI [20] | TGI [21] | TGI [23] | TGI [24] | TGI [25] | TGI [26] | TGI [27] | TGI [30] | TGI [31] | TGI [32] | TGI [33] | TGI [35] | TGI [37] | TGI [38] | TGI [39] | TGI [43] | TGI [45] | TGI [46] | TGI [47] | TGI [48] | TGI [50] | TGI [51] | TGI [52] | TGI [53] | TGI [54] | TGI [56] | TGI [58] | TGI [59]
50.1 µM: TGI [41]
39.3 µM: TGI [40]
36.8 µM: TGI [3]
46.9 µM: TGI [34]
93.2 µM: TGI [49]
36.9 µM: TGI [19]
67 µM: TGI [12]
32.3 µM: TGI [4]
34 µM: TGI [28]
21.3 µM: TGI [6]
33.3 µM: TGI [36]
inactive: GI50 [1] 22.4 µM | GI50 [2] 9.09 µM | GI50 [3] 4.78 µM | GI50 [4] 11.1 µM | GI50 [5] 2.48 µM | GI50 [6] 3.36 µM | GI50 [7] 4.24 µM | GI50 [8] 15.5 µM | GI50 [9] 99.1 µM | GI50 [10] 4.1 µM | GI50 [11] 16.2 µM | GI50 [12] 15.1 µM | GI50 [13] 21 µM | GI50 [14] 5.14 µM | GI50 [15] 12.6 µM | GI50 [16] 22.3 µM | GI50 [17] 12.3 µM | GI50 [18] 41.5 µM | GI50 [19] 11.2 µM | GI50 [20] 30.4 µM | GI50 [21] 21 µM | GI50 [22] 4.64 µM | GI50 [23] 26.9 µM | GI50 [24] > 100 µM | GI50 [25] 28.1 µM | GI50 [26] 8.91 µM | GI50 [27] > 100 µM | GI50 [28] 6.34 µM | GI50 [29] 4.75 µM | GI50 [30] 8.29 µM | GI50 [31] 8.81 µM | GI50 [32] 37.2 µM | GI50 [33] 5.96 µM | GI50 [34] 15.9 µM | GI50 [35] 30.3 µM | GI50 [36] 8.5 µM | GI50 [37] 52 µM | GI50 [38] 25 µM | GI50 [39] 6.44 µM | GI50 [40] 15.7 µM | GI50 [41] 14.9 µM | GI50 [42] 4.4 µM | GI50 [43] > 100 µM | GI50 [44] 2.76 µM | GI50 [45] 78.9 µM | GI50 [46] > 100 µM | GI50 [47] > 100 µM | GI50 [48] 16.5 µM | GI50 [49] 8.54 µM | GI50 [50] 25 µM | GI50 [51] 17.3 µM | GI50 [52] 24.4 µM | GI50 [53] 25.1 µM | GI50 [54] 30 µM | GI50 [55] 15.9 µM | GI50 [56] 30.4 µM | GI50 [57] 12.2 µM | GI50 [58] 16.5 µM | GI50 [59] 9.88 µM
